In assay [1] the test system is alcA/alcR system. The assay can be described thus: non-solvent chemical treatments, induction of the alcA/alcR switch. Type of assay: in vivo. To be noted: non-solvent chemical treatment.
The test system of assay [2] is alcA/alcR system. The assay can be described thus: hydroponic seedling system (root drenching), induced reporter gene expression. The class given is in vivo. To be noted: FIG. 2. An excerpt: (§1) 3. We have tested the specificity of alcA/alcR system with a range of solvents used in agronomic practice.
In general terms: In a reporter assay the amount or activity of a reporter protein is the signal.

Assay [3] relates to alcA/alcR system. Conditions: applied as a foliar spray, FIG. 3.
Excerpt: as §1
FIG. 3 illustrates the levels of induced reporter gene activity when the chemicals listed in Table 1 were applied as a foliar spray;

Another assay has as its system Tobacco var Samsun. Briefly: kill curve on glyphosate, tobacco stem segment in MS medium. Type of assay: in vivo. Here is the method:
(§2) Kill Curves for Tobacco var Samsun and Brassica napus var Westar on glyphosate
(§3) Both species were tested on a range of glyphosate concentrations by inserting, in the case of tobacco a 5-6 mm stem segment carrying a leaf node and in the case of oil seed rape the growing tip plus two leaves into MS medium containing glyphosate at […] glyphosate isopropylamine salt.

Assay [4] deals with Brassica napus var Westar. The assay can be described thus: kill curve on glyphosate, oil seed rape growing tip plus two leaves in MS medium. The class given is in vivo. Here is the method: as §2, §3
For assay [5], the system named is 5-enol-pyruvylshikimate-3-phosphate (EPSP) synthase. The assay can be described thus: EPSPS assay in plant extracts (14C-labelled phosphoenol pyruvate, HPLC). The class given is biochemical. Here is the method: Assays for 5-enol-pyruvylshikimate-3-phosphate (EPSP) synthase activity in plant extracts were carried out (1) by following the disappearance of the phosphoenol pyruvate substrate (as described by Rubin, J. L., Gaines, C. G and Jensen, R. A., in Plant Physiol (1984 75, 839-845) or (2) by conducting the assay in the reverse direction and coupling to pyruvate kinase and lactate dehydrogenase (as described by Mousdale D. M. and Coggins J. R. in Planta (1984) 160, 78-83) or (3) by using 14(-labelled phosphoenol pyruvate as substrate and detecting the formation of radioactive EPSP by HPLC on an anion exchange column and detecting using a flow-through radioactivity detector as described by Della-Cioppa et al in Proc. Nat. Acad. Sci. (USA) (1986), 83, 6873-6877.

With `CC1=CC(=O)CC(C)(C)C1(O)/C=C/C(C)=C\C(=O)O` (stereo not shown) [absisic acid], the “induction of the alcA/alcR system” value with alcA/alcR system [1] is given as “failed to induce”.
Take `CCC(C)O` (stereo not shown) [butan-2-ol]: the “levels of induced reporter gene expression” value in the assay with alcA/alcR system [2] is on record as “high levels of induced reporter gene expression”.
Still for that read-out and setting: next, `O=C1CCCCC1` [cyclohexanone]: “high levels of induced reporter gene expression”.
With `CCO` [ethanol], the “levels of induced reporter gene expression” value with alcA/alcR system [2] was “high levels of induced reporter gene expression”. In the assay on alcA/alcR system [3], the “levels of induced reporter gene activity” value is given as “high levels of induced reporter gene activity”.
Turning to `C=C` [ethylene], in the assay with alcA/alcR system [1], the “induction of the alcA/alcR system” value is “failed to induce”.
Same read-out and setting: then `C=C1C[C@]23C[C@@]1(O)CC[C@H]2[C@@]12C=C[C@H](O)[C@@](C)(C(=O)O1)[C@H]2[C@@H]3C(=O)O` [gibberelic acid], with “failed to induce”.
For the compound `O=C(O)CNCP(=O)(O)O` [glyphosate, N-phosphonomethyl-glycine], the “growth scored after two weeks” value with Tobacco var Samsun (0.005 mM in MS medium) was “No growth”; in the assay on Tobacco var Samsun (0.01 mM in MS medium), “No growth”; in the assay on Tobacco var Samsun (0.011 mM in MS medium), “No growth”; in the assay with Tobacco var Samsun (0.0275 mM in MS medium), “No growth”; in the assay on Tobacco var Samsun (0.055 mM in MS medium), “No growth”; in assay [4] (0.005 mM in MS medium), “No stem growth, 1 new leaf, roots to 1 cm”. Also, the “growth scored after two weeks” value in assay [4] (0.011 mM in MS medium) was “No stem growth, no new leaves, roots ˜ 0.5 cm”; in assay [4] (0.0275 mM in MS medium), “No stem growth, no new leaves, roots ˜ 2 mm”; in assay [4] (0.055 mM in MS medium), “No growth in any organ, ends of stem blackened”. The “inhibition of EPSP synthase activity” value in assay [5] is “relatively resistant to inhibition”.
Consider `O=C(O)c1ccccc1O` [salicylic acid], for which the “induction of the alcA/alcR system” value in the assay with alcA/alcR system [1] is recorded as “failed to induce”.
Still for that read-out and setting: then auxin, with “failed to induce”.

Source of the values: patent US6380463B1, “Inducible herbicide resistance” (priority 1995, dated 2002).
